Conditions: water at 20° C.; stated in words

**Q.** With `COCCOC` [ethylene glycol dimethyl ether] as the compound, how does the miscibility with water read?
**A.** The miscibility with water was “completely miscible with water”.
